Laboratory results from US20220259193A1, “KCNT1 INHIBITORS AND METHODS OF USE” (Praxis Precision Medicines, Inc., priority 2019, published 2022).
pIC50: −log10 of the molar value.

The compounds below were run against T1, KCNT1 (KNa1.1, Slack) (Homo sapiens, UniProt Q5JUK3) (assay: KCNT1 patch clamp assay (SyncroPatch 384PE automated patch clamp)). Conditions: tetracycline inducible HEK-TREX cell line; perforated patch; step from −80 mV to 0 mV; room temperature; read-out: KCNT1-WT IC50.
T1 construct: expressed in transfected cells; host or cells: HEK-TREX (tetracycline-inducible HEK cell line)
T1 sequence (Q5JUK3 1-1230): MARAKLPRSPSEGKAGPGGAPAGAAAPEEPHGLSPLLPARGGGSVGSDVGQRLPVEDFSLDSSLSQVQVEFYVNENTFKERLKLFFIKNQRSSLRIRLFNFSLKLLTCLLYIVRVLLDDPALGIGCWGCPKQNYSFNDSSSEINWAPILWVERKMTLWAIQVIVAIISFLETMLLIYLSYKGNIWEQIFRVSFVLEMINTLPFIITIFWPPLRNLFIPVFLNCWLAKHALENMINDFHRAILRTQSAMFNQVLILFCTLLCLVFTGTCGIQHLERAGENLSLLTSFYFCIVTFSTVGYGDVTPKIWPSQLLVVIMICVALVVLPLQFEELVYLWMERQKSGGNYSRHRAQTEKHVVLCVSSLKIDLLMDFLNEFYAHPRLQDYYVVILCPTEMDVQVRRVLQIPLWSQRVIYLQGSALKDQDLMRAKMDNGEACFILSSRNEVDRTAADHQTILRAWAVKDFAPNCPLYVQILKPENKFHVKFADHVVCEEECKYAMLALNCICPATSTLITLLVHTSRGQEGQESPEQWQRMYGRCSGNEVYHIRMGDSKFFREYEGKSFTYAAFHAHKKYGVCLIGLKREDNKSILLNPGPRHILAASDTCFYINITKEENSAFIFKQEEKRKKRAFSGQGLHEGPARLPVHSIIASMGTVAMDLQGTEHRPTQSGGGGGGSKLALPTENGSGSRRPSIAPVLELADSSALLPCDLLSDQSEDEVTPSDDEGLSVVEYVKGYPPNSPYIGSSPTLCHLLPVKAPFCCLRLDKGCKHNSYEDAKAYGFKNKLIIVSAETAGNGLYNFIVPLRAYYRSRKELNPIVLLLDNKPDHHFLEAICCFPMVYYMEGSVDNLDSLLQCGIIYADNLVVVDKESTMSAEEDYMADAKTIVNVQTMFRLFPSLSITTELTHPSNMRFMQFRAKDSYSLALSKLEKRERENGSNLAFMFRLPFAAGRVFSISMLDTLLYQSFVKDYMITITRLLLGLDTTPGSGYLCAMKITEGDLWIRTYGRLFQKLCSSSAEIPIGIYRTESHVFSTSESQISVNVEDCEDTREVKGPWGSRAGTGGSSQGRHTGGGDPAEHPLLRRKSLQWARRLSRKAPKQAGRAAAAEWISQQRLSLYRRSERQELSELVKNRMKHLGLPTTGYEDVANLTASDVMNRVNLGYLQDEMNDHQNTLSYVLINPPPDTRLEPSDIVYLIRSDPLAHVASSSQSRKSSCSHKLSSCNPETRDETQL
Type: cell-based
Method in brief: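 Tetracycline-inducible HEK-TREX cells; perforated-patch (10 μM escin) population recordings at room temperature, holding −80 mV with 100 ms step to 0 mV.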

SMILES | pIC50
CC(C)Oc1cc(-c2noc([C@H](C)NC(=O)c3cc(C(F)(F)F)nn3CC(=O)N(C)C)n2)ccn1 [Compound 224, (S)-1-(2-(dimethylamino)-2-oxoethyl)-N-(1-(3-(2-isopropoxypyridin-4-yl)-1,2,4-oxadiazol-5-yl)ethyl)-3-(trifluoromethyl)-1H-pyrazole-5-carboxamide] | ≥ 6.00
CC[C@H](NC(=O)c1cc(-c2ccccc2)nn1C)c1nc(-c2ccnc(C)c2)no1 [Compound 226, (S)-1-methyl-N-(1-(3-(2-methylpyridin-4-yl)-1,2,4-oxadiazol-5-yl)propyl)-3-phenyl-1H-pyrazole-5-carboxamide] | ≥ 6.00
Cc1cc(C(=O)N[C@@H](C)c2nc(-c3ccnc(C4CC4)c3)no2)n(C)n1 [Compound 227, (S)—N-(1-(3-(2-cyclopropylpyridin-4-yl)-1,2,4-oxadiazol-5-yl)ethyl)-1,3-dimethyl-1H-pyrazole-5-carboxamide] | ≥ 6.00
C[C@H](NC(=O)c1cc(-c2ccc(F)cc2)nn1C)c1nc(-c2ccnc(C3CC3)c2)no1 [Compound 228, (S)—N-(1-(3-(2-cyclopropylpyridin-4-yl)-1,2,4-oxadiazol-5-yl)ethyl)-3-(4-fluorophenyl)-1-methyl-1H-pyrazole-5-carboxamide] | ≥ 6.00
C[C@H](NC(=O)c1cc(C(F)F)nn1C)c1nc(-c2ccnc(C3CC3)c2)no1 [Compound 229, (S)—N-(1-(3-(2-cyclopropylpyridin-4-yl)-1,2,4-oxadiazol-5-yl)ethyl)-3-(difluoromethyl)-1-methyl-1H-pyrazole-5-carboxamide] | ≥ 6.00
C[C@H](NC(=O)c1cc(C(F)(F)F)nn1CC(=O)N(C)C)c1nc(-c2ccnc(C3CC3)c2)no1 [Compound 230, (S)—N-(1-(3-(2-cyclopropylpyridin-4-yl)-1,2,4-oxadiazol-5-yl)ethyl)-1-(2-(dimethylamino)-2-oxoethyl)-3-(trifluoromethyl)-1H-pyrazole-5-carboxamide] | ≥ 6.00
CC[C@H](NC(=O)c1cc(C)nn1-c1cccnc1)c1nc(-c2ccnc(C)c2)no1 [Compound 231, (S)-3-methyl-N-(1-(3-(2-methylpyridin-4-yl)-1,2,4-oxadiazol-5-yl)propyl)-1-(pyridin-3-yl)-1H-pyrazole-5-carboxamide] | 4.70 to 6.00
Cc1cccc(-c2noc([C@@H](C)NC(=O)c3cn(C(C)C)nc3C)n2)c1 [Compound 232, 1-isopropyl-3-methyl-N-[(1R)-1-[3-(m-tolyl)-1,2,4-oxadiazol-5-yl]ethyl]pyrazole-4-carboxamide] | ≤ 4.70
Cc1cccc(-c2noc([C@H](C)NC(=O)c3cn(C(C)C)nc3C)n2)c1 [Compound 233] | ≥ 6.00
C[C@H](NC(=O)c1cn(C)nc1C(F)F)c1nc(-c2ccnc(C(F)(F)F)c2)no1 [Compound 235] | ≥ 6.00
CC[C@H](NC(=O)c1cc(C(F)(F)F)nn1C)c1nc(-c2ccnc(C(F)(F)F)c2)no1 [Compound 236, (S)-1-methyl-3-(trifluoromethyl)-N-(1-(3-(2-(trifluoromethyl)pyridin-4-yl)-1,2,4-oxadiazol-5-yl)propyl)-1H-pyrazole-5-carboxamide] | ≥ 6.00
C[C@H](NC(=O)c1cc(C(F)(F)F)nn1C)c1nc(-c2nccc(C(F)(F)F)n2)no1 [Compound 237, (S)-1-methyl-3-(trifluoromethyl)-N-(1-(3-(4-(trifluoromethyl)pyrimidin-2-yl)-1,2,4-oxadiazol-5-yl)ethyl)-1H-pyrazole-5-carboxamide] | ≤ 4.70

Other lines, results leading:

pIC50 | SMILES
≥ 6.00 | C[C@H](NC(=O)c1cc(C(F)F)nn1C)c1nc(-c2ccnc(C(F)(F)F)c2)no1 [Compound 238]
≥ 6.00 | COCCn1nc(C(F)(F)F)cc1C(=O)N[C@@H](C)c1nc(-c2ccnc(C(F)(F)F)c2)no1 [Compound 239, (S)-1-(2-methoxyethyl)-3-(trifluoromethyl)-N-(1-(3-(2-(trifluoromethyl)pyridin-4-yl)-1,2,4-oxadiazol-5-yl)ethyl)-1H-pyrazole-5-carboxamide]
≥ 6.00 | C[C@H](NC(=O)c1cc(C(F)(F)F)nn1C)c1nc(-c2ccnc(C3(C)CC3)c2)no1 [Compound 240, (S)-1-methyl-N-(1-(3-(2-(1-methylcyclopropyl)pyridin-4-yl)-1,2,4-oxadiazol-5-yl)ethyl)-3-(trifluoromethyl)-1H-pyrazole-5-carboxamide]
≥ 6.00 | C[C@H](NC(=O)c1cc(C(F)(F)F)nn1Cc1ccccc1)c1nc(-c2ccnc(C(F)(F)F)c2)no1 [Compound 241, (S)-1-benzyl-3-(trifluoromethyl)-N-(1-(3-(2-(trifluoromethyl)pyridin-4-yl)-1,2,4-oxadiazol-5-yl)ethyl)-1H-pyrazole-5-carboxamide]
4.70 to 6.00 | C[C@H](NC(=O)c1cc(C(F)(F)F)nn1C)c1nc(-c2ccnc(C(F)(F)F)n2)no1 [Compound 242, (S)-1-methyl-3-(trifluoromethyl)-N-(1-(3-(2-(trifluoromethyl)pyrimidin-4-yl)-1,2,4-oxadiazol-5-yl)ethyl)-1H-pyrazole-5-carboxamide]
≥ 6.00 | C[C@H](NC(=O)c1cc(C(F)(F)F)nn1CCN(C)C)c1nc(-c2ccnc(C(F)(F)F)c2)no1 [Compound 243, (S)-1-(2-(dimethylamino)ethyl)-3-(trifluoromethyl)-N-(1-(3-(2-(trifluoromethyl)pyridin-4-yl)-1,2,4-oxadiazol-5-yl)ethyl)-1H-pyrazole-5-carboxamide]
4.70 to 6.00 | Cc1nn(C)c(C(=O)N[C@@H](C)c2nc(-c3ccnc(C(F)(F)F)c3)no2)c1C [Compound 244]
4.70 to 6.00 | CCOCc1cc(-c2noc([C@H](C)NC(=O)c3cc(C(F)(F)F)nn3C)n2)ccn1 [Compound 245, (S)—N-(1-(3-(2-(ethoxymethyl)pyridin-4-yl)-1,2,4-oxadiazol-5-yl)ethyl)-1-methyl-3-(trifluoromethyl)-1H-pyrazole-5-carboxamide]
≥ 6.00 | C[C@H](NC(=O)c1cc(C(F)(F)F)nn1Cc1ccncc1)c1nc(-c2ccnc(C(F)(F)F)c2)no1 [Compound 246, (S)-1-(pyridin-4-ylmethyl)-3-(trifluoromethyl)-N-(1-(3-(2-(trifluoromethyl)pyridin-4-yl)-1,2,4-oxadiazol-5-yl)ethyl)-1H-pyrazole-5-carboxamide]
≥ 6.00 | CC[C@H](NC(=O)OC(C)(C)C)c1nc(-c2ccnc(C3CC3)c2)no1 [Compound 247, tert-butyl (S)-(1-(3-(2-cyclopropylpyridin-4-yl)-1,2,4-oxadiazol-5-yl)propyl)carbamate]
≥ 6.00 | CC[C@H](NC(=O)c1cc(C(F)(F)F)nn1C)c1nc(-c2ccnc(C3CC3)c2)no1 [Compound 248, (S)—N-(1-(3-(2-cyclopropylpyridin-4-yl)-1,2,4-oxadiazol-5-yl)propyl)-1-methyl-3-(trifluoromethyl)-1H-pyrazole-5-carboxamide]
≥ 6.00 | C[C@H](NC(=O)c1cc(C(F)(F)F)nn1CC(=O)N1CCCC1)c1nc(-c2ccnc(C(F)(F)F)c2)no1 [Compound 249, (S)-1-(2-oxo-2-(pyrrolidin-1-yl)ethyl)-3-(trifluoromethyl)-N-(1-(3-(2-(trifluoromethyl)pyridin-4-yl)-1,2,4-oxadiazol-5-yl)ethyl)-1H-pyrazole-5-carboxamide]
4.70 to 6.00 | C[C@H](NC(=O)c1cc(C(F)(F)F)nn1CC(=O)N(C)C)c1nc(-c2ccnc(C(F)(F)F)c2)no1 [Compound 251, (S)-1-(2-(dimethylamino)-2-oxoethyl)-3-(trifluoromethyl)-N-(1-(3-(2-(trifluoromethyl)pyridin-4-yl)-1,2,4-oxadiazol-5-yl)ethyl)-1H-pyrazole-5-carboxamide]
4.70 to 6.00 | Cc1cc(C(=O)N[C@@H](C)c2nc(-c3ccnc(C(F)(F)F)c3)no2)n(C)n1 [Compound 252]
≥ 6.00 | C[C@H](NC(=O)c1cc(C(F)(F)F)nn1Cc1cccnc1)c1nc(-c2ccnc(C(F)(F)F)c2)no1 [Compound 253, (S)-1-(pyridin-3-ylmethyl)-3-(trifluoromethyl)-N-(1-(3-(2-(trifluoromethyl)pyridin-4-yl)-1,2,4-oxadiazol-5-yl)ethyl)-1H-pyrazole-5-carboxamide]
